Laboratory results as given in patent US20060014709A1, “Drug or cosmetic” (priority 2002, published 2006).
“And” between values parts separate entries of the source, which are not always exact repeats. Equal values may be shown once. “Also recorded” adds a separate entry of the source. Marks after values point to notes of the source that are not given here.

How the values were obtained:
Type in all cases: in vivo
[1] = test system: male SD rats, obstruction-released kidney (glomerular lesions and tubulointerstitial lesions); test: Obstruction release model after complete obstruction of unilateral ureter for 14 days (Example 2-2); design: key to Tubulointerstitial lesions: level of lesions: summed lesion score; + = 1, ++ = 2, +++ = 3; ≤6.5 improved; details: rat, 30 mg/kg subcutaneously
Source text: (§1) That is, the rat was laparotomized under anesthesia with ether and left ureter was ligated with 7-0 Nylon at the height of the margin of lower pole of kidney to close the abdomen. On the 14th day after obstruction, the obstruction was released and urinary passage was reconstructed using a cuff. Thus, after 14 days, the part of ligated obstructed ureter was resected, a polyethylene tube of 25 gages (manufactured by Nippon Sherwood) was used as a cuff and inserted into and retained at the lumen from the cut end of the lower normal ureter, then the cuff was also retained in the expanded upper ureter and each of them was ligated and fixed by 7-0 Nylon to reconstruct the urinary passage. At the same time, the right kidney at the opposite side was excised. After the release of the obstruction, body weight was measured, blood was drawn on the 2nd day, 5th day and 7th day from the release to measure serum creatinine, then the rat was killed under anesthesia and the left obstruction-released kidney was excised.
(§2) An in vivo biological test was carried out for the γ-lactone derivative according to the present invention using this model. Bulk powder of a test compound was dissolved in sterile physiological saline together with gum arabic, and concentrations of the test compound and gum arabic were adjusted to 30 mg/mL and 5% respectively. The preparation was administered orally or subcutaneously injected at the dose of 30 mg/kg or 3 mg/kg every day. The administration was conducted for the total 21 days of the obstructed period for 14 days and after release of the obstruction for 7 days.
For cell surface markers of leukocyte cells which infiltrate the obstruction-released kidney, ED1, CD11b (ED8), CD5 and CD2 were used. […] For CD5^+, a number of not less than 20 per glomerulus was considered as positive. For glomerular lesions, which was characterized by Bowman's capsule wall, glomerular hyalinosis, dilation of urinary space pole and hypertrophy of parietal cells, 50 glomeruli were evaluated to obtain a proportion of pathologic glomeruli. For tubulointerstitial lesions, levels of the lesions were represented by qualifying hyperplasia of tubular basement membrane, tubular enlargement and atrophy and interstitial fibrosis. Scoring was as follows: + gets 1-point as a light lesion; ++ gets 2-point as a moderate lesion; and +++ gets 3-point as a severe lesion. Levels of cell infiltration were evaluated qualitatively according to the above three-point scale. For glomerular lesions, when a proportion of lesioned glomeruli was decreased to not more than 20%, and for tubulointerstitial lesions, when a score of the lesions was not more than 6.5, it was considered as improved.
Numbers of cells positive for CD11b (ED8), CD2 and CD5 were compared by means of immunopathology, and CD11b^+CD2^+ macrophages were considered as regeneration-promoting macrophages in glomeruli and CD11b^−CD2^+CD5+ macrophages were considered as regeneration-promoting macrophages to tubulointerstitial lesions, and herewith, it was estimated whether each cell group is quantitatively dominant or not.

[2] = test system: male SD rats, obstruction-released kidney (glomerular lesions and tubulointerstitial lesions); test: Obstruction release model after complete obstruction of unilateral ureter for 14 days (Example 2-1); design: key to Tubulointerstitial lesions: level of lesions (quality): summed lesion score: + = 1, ++ = 2, +++ = 3 points; details: rat
Source text: as §1
With regard to the excised kidney, there were carried out measurements of weight of the kidney, creatinine concentration mg/dl in plasma as an indicator of kidney function and pathological test for the kidney, and also leukocyte cells which infiltrate the obstruction-released kidney were immunopathologically studied with cell surface markers for ED1 macrophages, CD11b (ED8) positive macrophages and CD5 positive lymphocytes. A number of positive cells was expressed as a number of cells per glomerulus from measured numbers of positive cells in five glomeruli, and for a number in tubulointerstitial tissue, it was expressed by the total number of cells existing in five fields of 200×magnification. For macrophages, a number of CD11b positive cells existing in glomerulus was considered as a number of CD11b^+CD2^+ macrophages and a case of existing not less than one positive cell per glomerulus was considered as positive (+). In the tubulointerstitial tissue, a number of […] 60 CD11b positive cells was considered as positive (+), or a case of CD11b^−CD2^+ macrophages dominantly increasing. Scoring of evaluation of tubulointerstitial lesions was as follows: + gets 1-point as a light lesion; ++ gets 2-point as a moderate lesion; and +++ gets3-point as a severe lesion. For glomerular lesions, when a proportion of lesioned glomeruli was decreased to not more than 40%, and for tubulointerstitial lesions, when a score of the lesions was not more than 4, it was considered as improved.
For glomerular lesions, by counting glomeruli causing thickening of Bowman's capsule wall and glomerular hyalinosis, a proportion of glomeruli having lesions was calculated. For tubulointerstitial lesions, by qualifying hyperplasia of tubular basement membrane and interstitial fibrosis, levels of the lesions were represented.
as §2
For test groups, a group administered single compound group, a group administered both compound group and a control group administered solution of gum arabic were set up and compared for renal functions and morphological evaluations, as well as numbers of ED1, CD5, CD11b positive cells by means of immunopathology.

[3] = test system: male SDT rats (spontaneously type II diabetes model), complete skin-excised wounds; test: Complete skin-excised model, wound healing; details: SDT rat, 10 mg/kg subcutaneously every day
Source text: Using male SDT rats of 28-30 weeks age, which were a spontaneously type II diabetes model, promoting effect on repair and regeneration in wound healing after complete skin excision were examined according to a partially modified method of Breitbout AS et al. (Ann Plast Surg 1999, 43: 632). That is, an animal was shaved at its back under anesthesia with ether, and skin in 2×2 cm size was excised together with panniculus carnosus in same size to make two complete skin-excised wounds per animal.
Healings of the wounds were observed on the 1st day, 4th day, 7th day, 12h day, 15th day, 21st day and 28th day from the operation. An area of the wounds was obtained as the product of the average vertical length and the average horizontal length which were measured along with a direction of the longest part in the wound.
A test compound was dissolved in sterile physiological saline together with gum arabic. Concentrations of the test compound and gum arabic were adjusted to 30 mg/mL and 5% respectively. The preparation was subcutaneously injected at the dose of 10 mg/kg every day. The administration was started on 6 days before the operation and continued to 28 days after the operation.

[4] = 30 mg/kg subcutaneously every day for 21 days, one value per animal, 30 mg/kg

O=C1OC(Cl)(C(=O)OCc2ccccc2)c2ccccc21 (stereo not drawn) [compound (I-3), 1-chloro-3-oxo-1,3-dihydroisobenzofuran-1-carboxylic acid benzyl ester]
cases in which regeneration-promoting CD11b^+CD2^+ macrophages were predominant in glomeruli [1]: three of four cases
cases in which regeneration-promoting CD11b^−CD2^+CD5+ macrophages were predominant in tubulointerstitial lesions [1]: three of four cases
difference in serum creatinine [1]: no difference
pathological improvement of glomerular lesions (cases) [1]: all four cases
pathological improvement of tubulointerstitial lesions (cases) [1]: two of four cases
Coincidence of two regeneration macrophages being positive ([1]; one value per animal, 30 mg/kg): Coincident
Degree of cell infiltration ([1]; one value per animal, 30 mg/kg): + and +++
Number of regeneration CD11b^+CD2^+ macrophages to glomerular lesions: number of positive cells per glomerulus CD11b^+CD2^+ ([1]; one value per animal, 30 mg/kg): 4.3 cells per glomerulus and 1.8 cells per glomerulus (2×) and 0.5 cells per glomerulus
Number of regeneration CD11b^−CD2^+CD5^+ macrophages to tubulointerstitial lesions: number of positive cells in five fields of 200× magnification, CD5^+ ([1]; one value per animal, 30 mg/kg): 77 cells in five fields of 200× m and 25 cells in five fields of 200× m and 60 cells in five fields of 200× m and 20 cells in five fields of 200× m
Number of regeneration CD11b^−CD2^+CD5^+ macrophages to tubulointerstitial lesions: number of positive cells in five fields of 200× magnification, CD11b^+ ([1]; one value per animal, 30 mg/kg): 62 cells in five fields of 200× m and 53 cells in five fields of 200× m and 14 cells in five fields of 200× m and 22 cells in five fields of 200× m
Regeneration macrophages to glomerular lesions, Determination Increase + ([1]; one value per animal, 30 mg/kg): + (a case of existing not less than one positive cell per glomerulus was considered as positive (+))
Serum creatinine ([1]; one value per animal, 30 mg/kg): 2.8 mg/dL and 1.4 mg/dL and 2.1 mg/dL and 1.7 mg/dL
Tubulointerstitial lesions: level of lesions ([1]; one value per animal, 30 mg/kg): 6.5 and 3.5 and 7.0 and 8.5
Glomerular lesions: proportion of lesioned glomeruli (%) ([1]; one value per animal, 50 glomeruli evaluated): <1%
Regeneration CD11b^−CD2^+CD5^+ macrophages to tubulointerstitial lesions, Determination Increase + ([1]; one value per animal, CD11b^+ not more than 60 and CD5^+ not less than 20, 30 mg/kg): + (For CD5^+, a number of not less than 20 per glomerulus was considered as positive)

C[C@@H](OC(=O)[C@]1(Oc2ccc(F)cc2)CCC(=O)O1)c1ccc2ccccc2c1 [compound (I-1), (R)-1-naphthalen-2-ylethyl (S)-2-(4-fluorophenoxy)-5-oxotetrahydrofuran-2-carboxylate]
cases with increased regeneration-promoting CD11b^+CD2^+ macrophages to glomerular lesions ([2]; 30 mg/kg subcutaneously): two of four cases
cases with increased regeneration-promoting CD11b^−CD2^+ macrophages to tubulointerstitial lesions ([2]; 30 mg/kg subcutaneously): three of four cases
difference in serum creatinine ([2]; 30 mg/kg subcutaneously): no difference
pathological improvement of glomerular lesions (cases) ([2]; 30 mg/kg subcutaneously): no glomerular lesion was improved
pathological improvement of tubulointerstitial lesions (cases) ([2]; 30 mg/kg subcutaneously): three of four cases
Coincidence of two regeneration macrophages being positive [2, 4]: Not coincident; also recorded: Coincident
Glomerular lesions: proportion of lesioned glomeruli (%) [2, 4]: 29% and 39% and 57% and 67%
Number of regeneration CD11b^+CD2^+ macrophages to glomerular lesions: number of positive cells per glomerulus [2, 4]: 0.5 cells per glomerulus and 2.0 cells per glomerulus and 0.0 cells per glomerulus and 1.3 cells per glomerulus
Number of regeneration CD11b^−CD2^+ macrophages to tubulointerstitial lesions: number of positive cells (CD11b) in five fields of 200× magnification [2, 4]: 24 cells in five fields of 200× m and 140 cells in five fields of 200× m and 59 cells in five fields of 200× m and 41 cells in five fields of 200× m
Regeneration CD11b^+CD2^+ macrophages to glomerular lesions, Determination: increase = + [2, 4]: + (a case of existing not less than one positive cell per glomerulus was considered as positive (+))
Regeneration CD11b^−CD2^+ macrophages to tubulointerstitial lesions, Determination: increase + [2, 4]: + (a number of not more than 60 CD11b positive cells was considered as positive (+))
Serum creatinine [2, 4]: 3.0 mg/dL and 2.7 mg/dL and 2.8 mg/dL and 2.2 mg/dL
Tubulointerstitial lesions: level of lesions (quality) [2, 4]: 7.0 and 4.0 and 3.0 (2×)
Excised wound area (cm^2) ([3]; 1st day after complete skin excision): 3.38 cm^2
Excised wound area (cm^2) ([3]; 4th day after complete skin excision): 2.10 cm^2
Excised wound area (cm^2) ([3]; 7th day after complete skin excision): 1.45* cm^2
Excised wound area (cm^2) ([3]; 12th day after complete skin excision): 0.56* cm^2
Excised wound area (cm^2) ([3]; 15th day after complete skin excision): 0.51 cm^2
Excised wound area (cm^2) ([3]; 21st day after complete skin excision): 0.40 cm^2
Crust formation/number of wound ([3]; 21st day after the operation): 0/8
crust formation on the surface of repaired wounds (in words) ([3]; 28th day): no crust formation occurred
Excised wound area (cm^2) ([3]; 28th day after complete skin excision): 0.18* cm^2
Crust formation/number of wound ([3]; 28th day after the operation): 0/8
promoting effect on wound healing (in words) ([3]; versus the control group, 10 mg/kg): more promoting effect on wound healing at 7th day to 12th day after the operation; also recorded: in 28th day of healing period, it showed promoting effect on wound healing; also recorded: promoting effect on healing of dermis and epidermis including panniculus carnosus
